Test results from patent US10407467B2, “Polymyxin derivatives and their use in combination therapy together with different antibiotics” (priority 2013, dated 2019).
Numbered stars: 1 amine (or outer) side, 2 acyl side, 3 side chain; on linkers, the order of the positions; unused ones are H or OH. Bridge positions count the residues as written; N and C are the ends. Square brackets hold non-standard residues; d marks the D form. Peptide text beside a SMILES is read from it. Achc(trans-4) = O=C([C@H]1CC[C@H](N[*:1])CC1)[*:2]; Dab = NCC[C@H](N)C(=O)O

Legend:
Type in all cases: cell-based
Klebsiella pneumoniae [1] = assay: MIC, compound in combination with a second agent (broth microdilution)
Method in brief: (§1)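 Read-out is the total-drug MIC of a 1:1 weight ratio combination with another agent, e.g. rifampicin. Duplicates within 2-fold gave the lower value; wider spread meant a non-valid assay. Where compounds were tested multiple times, the mode is given.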

Acinetobacter baumannii [2] = assay: as above
Method in brief: as §1

Escherichia coli [3] = assay: as above
Method in brief: as §1

Pseudomonas aeruginosa [4] = assay: as above
Method in brief: as §1

Klebsiella pneumoniae [5] = assay: MIC, sole activity (no second agent)
Method in brief: (§2)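 Up to four strains per species were tested in cation-adjusted Mueller-Hinton broth, with inoculum made by direct colony suspension from 18-24 hour Mueller-Hinton agar plates, adjusted to 0.5 McFarland. Duplicates differing by under 2-fold gave the lower value; greater spread voided the run. Values are relative to Polymyxin B.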

Acinetobacter baumannii [6] = assay: MIC, sole activity (no second agent); conditions: Second Agent none (Table 7B, by row order)
Method in brief: as §2

Escherichia coli [7] = assay: MIC, sole activity (no second agent)
Method in brief: as §2

Pseudomonas aeruginosa [8] = assay: MIC, sole activity (no second agent)
Method in brief: as §2

[9] = 1:1 combination with Ciprofloxacin (by row order), total drug concentration
[10] = 1:1 combination with Ciprofloxacin, total drug concentration
[11] = 1:1 combination with Tigecycline, total drug concentration
[12] = 1:1 combination with Vancomycin, total drug concentration
[13] = Second Agent none (Table 7B, by row order)

## CC(C)C[C@@H]1NC(=O)[C@@H](Cc2ccccc2)NC(=O)[C@H](CCN)NC(=O)[C@@H](NC(=O)[C@H](CCN)NC(=O)[C@@H](NC(=O)[C@H]2CC[C@H](N)CC2)[C@@H](C)O)CCNC(=O)[C@H]([C@@H](C)O)NC(=O)[C@H](CCN)NC(=O)[C@H](CCN)NC1=O [Example 17, Trans-4-aminocyclohexane-carbonyl polymyxin B nonapeptide] (H-[Achc(trans-4)]T[Dab][Dab][Dab][dF]L[Dab][Dab]T; lactam 4-C)
Klebsiella pneumoniae [1]; 1:1 (wt:wt) combination with Rifampicin, MIC = total drug concentration, strain ATCC 4352
  MIC K. pneumoniae ATCC 4352: 0.125 micrograms/mL
Klebsiella pneumoniae [1]; 1:1 (wt:wt) combination with Rifampicin, MIC = total drug concentration, strain ATCC-BAA-2146
  MIC K. pneumoniae ATCC-BAA-2146: 0.125 micrograms/mL
Klebsiella pneumoniae [1]; 1:1 (wt:wt) combination with Rifampicin, MIC = total drug concentration, strain CCUG-59348
  MIC K. pneumoniae CCUG-59348: 2 micrograms/mL
Klebsiella pneumoniae [1]; 1:1 (wt:wt) combination with Rifampicin, MIC = total drug concentration, strain NCTC 13438
  MIC K. pneumoniae NCTC 13438: 0.25 micrograms/mL
Klebsiella pneumoniae [1]; [9]
  MIC K. pneumoniae ATCC 4352: ≤0.06 micrograms/mL
Klebsiella pneumoniae [1]; [10]
  MIC K. pneumoniae CCUG 59348: >32 micrograms/mL
  MIC K. pneumoniae NCTC 13442: 1 micrograms/mL
Klebsiella pneumoniae [1]; [11]
  MIC K. pneumoniae CCUG 59348: >32 micrograms/mL
  MIC K. pneumoniae NCTC 13442: 16 micrograms/mL
Klebsiella pneumoniae [1]; [12]
  MIC K. pneumoniae CCUG 59348: >32 microgram/mL
  MIC K. pneumoniae CCUG 59626: 0.25 microgram/mL
  MIC K. pneumoniae NCTC 13442: 32 microgram/mL
Klebsiella pneumoniae [1]; K. pneumoniae ATCC BAA-1706, 1:1 combination with Meropenem, total drug concentration
  MIC K. pneumoniae ATCC BAA-1706: 4 micrograms/mL
Klebsiella pneumoniae [1]; K. pneumoniae CCUG 59348, 1:1 combination with Meropenem, total drug concentration
  MIC K. pneumoniae CCUG 59348: >32 micrograms/mL
Klebsiella pneumoniae [1]; K. pneumoniae NCTC 13442, 1:1 combination with Meropenem, total drug concentration
  MIC K. pneumoniae NCTC 13442: 16 micrograms/mL
Acinetobacter baumannii [2]; 1:1 (wt:wt) combination with Rifampicin, MIC = total drug concentration, strain ATCC BAA-747
  MIC A. baumannii ATCC BAA-747: 0.125 micrograms/mL
Acinetobacter baumannii [2]; 1:1 (wt:wt) combination with Rifampicin, MIC = total drug concentration, strain CCUG57249
  MIC A. baumannii CCUG57249: <0.06 micrograms/mL
Acinetobacter baumannii [2]; 1:1 (wt:wt) combination with Rifampicin, MIC = total drug concentration, strain NCTC 13423
  MIC A. baumannii NCTC 13423: ≤0.06 micrograms/mL
Acinetobacter baumannii [2]; 1:1 (wt:wt) combination with Rifampicin, MIC = total drug concentration, strain NCTC 13424
  MIC A. baumannii NCTC 13424: <0.06 micrograms/mL
Acinetobacter baumannii [2]; [9]
  MIC A. baumannii NCTC 13424: 0.5 micrograms/mL
Escherichia coli [3]; 1:1 (wt:wt) combination with Rifampicin, MIC = total drug concentration, strain ATCC25922
  MIC E. coli ATCC25922: ≤0.06 micrograms/mL
Escherichia coli [3]; 1:1 (wt:wt) combination with Rifampicin, MIC = total drug concentration, strain NCTC9001
  MIC E. coli NCTC9001: 0.125 micrograms/mL
Escherichia coli [3]; [10]
  MIC E. coli ATCC25922: ≤0.06 micrograms/mL
  MIC E. coli CCUG 59342: 0.5 micrograms/mL
  MIC E. coli NCTC9001: ≤0.06 micrograms/mL
Escherichia coli [3]; [11]
  MIC E. coli NCTC9001: 16 micrograms/mL
Escherichia coli [3]; [12]
  MIC E. coli NCTC9001: 16 microgram/mL
Escherichia coli [3]; E. coli NCTC9001, 1:1 combination with Meropenem, total drug concentration
  MIC E. coli NCTC9001: 0.25 micrograms/mL
Pseudomonas aeruginosa [4]; 1:1 (wt:wt) combination with Rifampicin, MIC = total drug concentration, strain ATCC 27853
  MIC P. aeruginosa ATCC 27853: 0.125 micrograms/mL
Pseudomonas aeruginosa [4]; 1:1 (wt:wt) combination with Rifampicin, MIC = total drug concentration, strain ATCC CRM-9027
  MIC P. aeruginosa ATCC CRM-9027: 0.125 micrograms/mL
Pseudomonas aeruginosa [4]; 1:1 (wt:wt) combination with Rifampicin, MIC = total drug concentration, strain ATCC-47
  MIC P. aeruginosa ATCC-47: 0.125 micrograms/mL
Pseudomonas aeruginosa [4]; 1:1 (wt:wt) combination with Rifampicin, MIC = total drug concentration, strain CCUG 59626
  MIC P. aeruginosa CCUG 59626: 0.125 micrograms/mL
Pseudomonas aeruginosa [4]; [9]
  MIC P. aeruginosa ATCC 27853: ≤0.06 micrograms/mL
  MIC P. aeruginosa CCUG 59626: 0.5 micrograms/mL
Pseudomonas aeruginosa [4]; [11]
  MIC P. aeruginosa CCUG 59626: 0.25 micrograms/mL
Pseudomonas aeruginosa [4]; P. aeruginosa CCUG 59626, 1:1 combination with Meropenem, total drug concentration
  MIC P. aeruginosa CCUG 59626: 0.5 micrograms/mL
Klebsiella pneumoniae [5]; K. pneumoniae CCUG 59348, second agent none
  MIC K. pneumoniae CCUG 59348: >32 micrograms/mL
Klebsiella pneumoniae [5]; K. pneumoniae NCTC 13442, second agent none
  MIC K. pneumoniae NCTC 13442: >32 micrograms/mL
Klebsiella pneumoniae [5]; Second Agent none (Table 7A)
  MIC K. pneumoniae CCUG 59348: >32 microgram/mL
  MIC K. pneumoniae CCUG 59626: 0.25 microgram/mL
  MIC K. pneumoniae NCTC 13442: >32 microgram/mL
Klebsiella pneumoniae [5]; Second Agent none (Table 7B)
  MIC K. pneumoniae CCUG 59348: >32 micrograms/mL
  MIC K. pneumoniae NCTC 13442: >32 micrograms/mL
Klebsiella pneumoniae [5]; [13]
  MIC K. pneumoniae ATCC 4352: 0.125 micrograms/mL
Klebsiella pneumoniae [5]; Second Agent none (Table 7C)
  MIC K. pneumoniae CCUG 59348: >32 micrograms/mL
  MIC K. pneumoniae NCTC 13442: >32 micrograms/mL
Klebsiella pneumoniae [5]; in the absence of Rifampicin, strain ATCC 4352
  MIC K. pneumoniae ATCC 4352: 0.125 micrograms/mL
Klebsiella pneumoniae [5]; in the absence of Rifampicin, strain ATCC-BAA2146
  MIC K. pneumoniae ATCC-BAA2146: 8 micrograms/mL
Klebsiella pneumoniae [5]; in the absence of Rifampicin, strain CCUG-59348
  MIC K. pneumoniae CCUG-59348: >32 micrograms/mL
Klebsiella pneumoniae [5]; in the absence of Rifampicin, strain NCTC-13438
  MIC K. pneumoniae NCTC-13438: 32 micrograms/mL
Acinetobacter baumannii [6]
  MIC A. baumannii NCTC 13424: 4 micrograms/mL
Escherichia coli [7]; Second Agent none (Table 7B)
  MIC E. coli CCUG 59342: 0.25 micrograms/mL
  MIC E. coli NCTC9001: 16 micrograms/mL
Escherichia coli [7]; in the absence of Rifampicin, strain ATCC25922
  MIC E. coli ATCC25922: 2 micrograms/mL
Escherichia coli [7]; in the absence of Rifampicin, strain NCTC9001
  MIC E. coli NCTC9001: 16 micrograms/mL
Pseudomonas aeruginosa [8]; P. aeruginosa CCUG 59626, second agent none
  MIC P. aeruginosa CCUG 59626: 0.25 micrograms/mL
Pseudomonas aeruginosa [8]; [13]
  MIC P. aeruginosa ATCC 27853: 0.125 micrograms/mL
  MIC P. aeruginosa CCUG 59626: 0.25 micrograms/mL
Pseudomonas aeruginosa [8]; Second Agent none (Table 7C)
  MIC P. aeruginosa CCUG 59626: 0.25 micrograms/mL
Pseudomonas aeruginosa [8]; in the absence of Rifampicin, strain ATCC27853
  MIC P. aeruginosa ATCC 27853: 0.125 micrograms/mL
Pseudomonas aeruginosa [8]; in the absence of Rifampicin, strain CCUG 59626
  MIC P. aeruginosa CCUG 59626: 0.25 micrograms/mL
